# Results reported in patent US20050272748A1, “2-Mercapto-substituted triazolopyrimidines, methods for the production thereof, the use of the same for controlling patogenic fungi, and agents containing said compounds” (BASF Aktiengesellschaft, priority 2002, published 2005).
# Tested on: Botrytis cinerea
# Experiment: Activity against gray mold on bell pepper leaves, protective application
# Assay type: in vivo
# Conditions: 250 ppm active compound; bell pepper seedlings sprayed to runoff, inoculated next day, evaluated after 5 days; untreated plants 45% infected
# Description: The active compounds were prepared as a 10% strength emulsion in a mixture of 70% by weight of cyclohexanone, 20% by weight of Nekanil®) LN (Lutensol®) AP6, wetting agent having emulsifying and dispersing action based on ethoxylated alkylphenols) and 10% by weight of Wettol® EM (nonionic emulsifier based on ethoxylated castor oil) and diluted with water to the desired concentration. Use example: Activity against gray mold, caused by Botiytis cinerea, on bell pepper leaves, protective application Bell pepper seedlings of the cultivar “Neusiedler Ideal Elite” were, after 4 to 5 leaves were well-developed, sprayed to runoff-point with an aqueous suspension having the concentration of active compound stated below. The next day, the treated plants were inoculated with a spore suspension of Botrytis cinerea, which contained 1.7×10^6 spores/ml in an aqueous 2% strength biomalt solution. […] After 5 days, the extent of the fungal infection on the leaves could be determined visually in %. […] The efficacy (E) is calculated as follows, using Abbot's formula: E=(1−α/β)·100 • α corresponds to the fungal infection of the treated plants in % and • β corresponds to the fungal infection of the untreated (control) plants in % At an efficacy of 0, the degree of infection of the treated plants corresponds to that of the untreated control plants; at an efficacy of 100, the treated plants were not infected.
smiles,measurement,value
"CC1CCN(c2c(-c3c(F)cc(F)cc3F)c(Cl)nc3nc(S)nn23)CC1 [Example 9, 5-chloro-7-(4-methylpiperidin-1-yl)-2-mercapto-6-(2,4,6-trifluorophenyl)-[1,2,4]-triazolo[1,5-a]pyrimidine]",efficacy (Abbot's formula),56%
